How the values were obtained:
[1] = tested on: SNB-75; assay: NCI-60 DTP human tumor cell line screening; format: cell-based; details: CNS cancer SNB-75
[2] = tested on: ACHN; assay: NCI-60 DTP human tumor cell line screening; format: cell-based; details: Renal cancer ACHN
[3] = tested on: A498; assay: NCI-60 DTP human tumor cell line screening; format: cell-based; details: Renal cancer A498
[4] = tested on: MALME-3M; assay: NCI-60 DTP human tumor cell line screening; format: cell-based; details: Melanoma MALME-3M
[5] = tested on: OVCAR-8; assay: NCI-60 DTP human tumor cell line screening; format: cell-based; details: Ovarian cancer OVCAR-8
[6] = tested on: MCF-7; assay: NCI-60 DTP human tumor cell line screening; format: cell-based
[7] = tested on: panel of 60 human tumor cell lines; assay: NCI-60 DTP human tumor cell line screening, whole panel
[8] = tested on: NCI/ADR-RES; assay: NCI-60 DTP human tumor cell line screening; format: cell-based
[9] = tested on: UO-31; assay: NCI-60 DTP human tumor cell line screening; format: cell-based; details: Renal cancer UO-31
[10] = tested on: UACC-62; assay: NCI-60 DTP human tumor cell line screening; format: cell-based; details: Melanoma UACC-62
[11] = tested on: SK-MEL-28; assay: NCI-60 DTP human tumor cell line screening; format: cell-based; details: Melanoma SK-MEL-28
[12] = tested on: SW-620; assay: NCI-60 DTP human tumor cell line screening; format: cell-based
[13] = tested on: IGROV1; assay: NCI-60 DTP human tumor cell line screening; format: cell-based; details: Ovarian cancer IGROV1
[14] = tested on: NCI-H460; assay: NCI-60 DTP human tumor cell line screening; format: cell-based
[15] = tested on: SK-MEL-2; assay: NCI-60 DTP human tumor cell line screening; format: cell-based; details: Melanoma SK-MEL-2
[16] = tested on: SF-295; assay: NCI-60 DTP human tumor cell line screening; format: cell-based; details: CNS cancer SF-295
[17] = tested on: SNB-19; assay: NCI-60 DTP human tumor cell line screening; format: cell-based; details: CNS cancer SNB-19
[18] = tested on: DU-145; assay: NCI-60 DTP human tumor cell line screening; format: cell-based; details: Prostate cancer DU-145
[19] = tested on: RXF 393; assay: NCI-60 DTP human tumor cell line screening; format: cell-based; details: Renal cancer RXF 393
[20] = tested on: LOX IMVI; assay: NCI-60 DTP human tumor cell line screening; format: cell-based; details: Melanoma LOX IMVI
[21] = tested on: RPMI-8226; assay: NCI-60 DTP human tumor cell line screening; format: cell-based; details: Leukemia RPMI-8226
[22] = tested on: OVCAR-3; assay: NCI-60 DTP human tumor cell line screening; format: cell-based; details: Ovarian cancer OVCAR-3
[23] = tested on: HS 578T; assay: NCI-60 DTP human tumor cell line screening; format: cell-based; details: Breast cancer HS 578T
[24] = tested on: COLO 205; assay: NCI-60 DTP human tumor cell line screening; format: cell-based; details: Colon cancer COLO 205
[25] = tested on: HL-60 (TB); assay: NCI-60 DTP human tumor cell line screening; format: cell-based
[26] = tested on: CAKI-1; assay: NCI-60 DTP human tumor cell line screening; format: cell-based; details: Renal cancer CAKI-1
[27] = tested on: CCRF-CEM; assay: NCI-60 DTP human tumor cell line screening; format: cell-based; details: Leukemia CCRF-CEM
[28] = tested on: MDA-MB-468; assay: NCI-60 DTP human tumor cell line screening; format: cell-based
[29] = tested on: HCT-116; assay: NCI-60 DTP human tumor cell line screening; format: cell-based; details: Colon cancer HCT-116
[30] = tested on: BT-549; assay: NCI-60 DTP human tumor cell line screening; format: cell-based; details: Breast cancer BT-549
[31] = tested on: U251; assay: NCI-60 DTP human tumor cell line screening; format: cell-based; details: CNS cancer U251
[32] = tested on: MDA-MB-435; assay: NCI-60 DTP human tumor cell line screening; format: cell-based
[33] = tested on: HCC-2998; assay: NCI-60 DTP human tumor cell line screening; format: cell-based; details: Colon cancer HCC-2998
[34] = tested on: HT29; assay: NCI-60 DTP human tumor cell line screening; format: cell-based
[35] = tested on: T-47D; assay: NCI-60 DTP human tumor cell line screening; format: cell-based; details: Breast cancer T-47D
[36] = tested on: HCT-15; assay: NCI-60 DTP human tumor cell line screening; format: cell-based; details: Colon cancer HCT-15

NC(=NS(=O)(=O)c1ccccc1Cl)c1ccc2ccccc2n1 [Compound 15, N′-(2-Chlorophenylsulfonyl)quinoline-2-carboximidamide]
TGI [1]: 30.60 µM | GI50 ([1]; Homo sapiens): 2.52 µM | GI50 ([2]; Homo sapiens): 7.19 µM | TGI [2]: 13.10 µM | GI50 ([3]; Homo sapiens): 8.08 µM | TGI [3]: ^c (Determined TGI values were >100 μM) | GI50 ([4]; Homo sapiens): 5.42 µM | TGI [4]: ^c (Determined TGI values were >100 μM) | GI50 ([5]; Homo sapiens): 5.74 µM | TGI [5]: 12.00 µM | TGI ([6]; Breast cancer MCF-7): ^c (Determined TGI values were >100 μM) | inhibition at 10 µM ([6]; Homo sapiens, MCF7, read-out: Growth inhibition ΔGI): 15.7% | GI50 ([6]; Homo sapiens, MCF7, Breast cancer MCF-7): 3.28 µM | Growth percent mean values (MG_MID) ([7]; 10 μM, mean of growth percent for all tested cell lines): 53.4% | GI50 ([7]; Homo sapiens): 0.92 to 13 µM | CC50 ([7]; Homo sapiens, SK-MEL-5, read-out: LC 50): > 100 µM | inhibition at 10 µM ([8]; Homo sapiens, NCI/ADR-RES, read-out: Growth inhibition ΔGI): 42.9% | GI50 ([8]; Homo sapiens, Ovarian cancer NCI/ADR-RES): 2.32 µM | TGI ([8]; Ovarian cancer NCI/ADR-RES): 50.50 µM | GI50 ([9]; Homo sapiens): 7.26 µM | TGI [9]: 48.50 µM | GI50 ([10]; Homo sapiens): 6.07 µM | TGI [10]: ^c (Determined TGI values were >100 μM) | GI50 ([11]; Homo sapiens): 5.45 µM | TGI [11]: 12.00 µM | TGI ([12]; Colon cancer SW-620): ^c (Determined TGI values were >100 μM) | inhibition at 10 µM ([12]; Homo sapiens, SW-620, read-out: Growth inhibition ΔGI): 24.7% | GI50 ([12]; Homo sapiens, Colon cancer SW-620): 3.45 µM | GI50 ([13]; Homo sapiens, IGROV-1): 9.42 µM | TGI [13]: ^c (Determined TGI values were >100 μM) | inhibition at 10 µM ([14]; Homo sapiens, NCI-H460, read-out: Growth inhibition ΔGI): 19.6% | GI50 ([14]; Homo sapiens, Non-small cell lung cancer NCI-H460): 4.02 µM | TGI ([14]; Non-small cell lung cancer NCI-H460): ^c (Determined TGI values were >100 μM) | GI50 ([15]; Homo sapiens): 3.4 µM | TGI [15]: ^c (Determined TGI values were >100 μM) | TGI [16]: 86.30 µM | GI50 ([16]; Homo sapiens): 3.83 µM | TGI [17]: ^c (Determined TGI values were >100 μM) | GI50 ([17]; Homo sapiens): 5.61 µM | GI50 ([18]; Homo sapiens): 4.96 µM | TGI [18]: ^c (Determined TGI values were >100 μM) | GI50 ([19]; Homo sapiens): 4.02 µM | TGI [19]: 35.90 µM | GI50 ([20]; Homo sapiens): 4.05 µM | TGI [20]: ^c (Determined TGI values were >100 μM) | GI50 ([21]; Homo sapiens): 5.27 µM | TGI [21]: ^c (Determined TGI values were >100 μM) | GI50 [22]: 9.27 µM | TGI [23]: ^c (Determined TGI values were >100 μM) | GI50 ([23]; Homo sapiens): 8.98 µM | TGI [24]: 16.00 µM | GI50 ([24]; Homo sapiens): 3.68 µM | inhibition at 10 µM ([25]; Homo sapiens, HL-60, read-out: Growth inhibition ΔGI): 19.7% | GI50 ([25]; Homo sapiens, Leukemia HL-60 (TB)): 2.29 µM | TGI ([25]; Leukemia HL-60 (TB)): 8.41 µM | GI50 ([26]; Homo sapiens): 5.21 µM | TGI [26]: ^c (Determined TGI values were >100 μM) | GI50 ([27]; Homo sapiens): 3.65 µM | TGI [27]: ^c (Determined TGI values were >100 μM) | TGI ([28]; Breast cancer MDA-MB-468): 6.19 µM | inhibition at 10 µM ([28]; Homo sapiens, MDA-MB-468, read-out: Growth inhibition ΔGI): 42.2% | GI50 ([28]; Homo sapiens, Breast cancer MDA-MB-468): 2.01 µM | TGI [29]: ^c (Determined TGI values were >100 μM) | GI50 ([29]; Homo sapiens): 4.66 µM | TGI [30]: 56.00 µM | GI50 ([30]; Homo sapiens): 5.08 µM | TGI [31]: ^c (Determined TGI values were >100 μM) | GI50 ([31]; Homo sapiens, U-251): 4.48 µM | inhibition at 10 µM ([32]; Homo sapiens, MDA-MB-435, read-out: Growth inhibition ΔGI): 80.4% | GI50 ([32]; Homo sapiens, Melanoma MDA-MB-435): 1.13 µM | TGI ([32]; Melanoma MDA-MB-435): 3.78 µM | TGI [33]: 59.40 µM | GI50 ([33]; Homo sapiens): 9.63 µM | TGI ([34]; Colon cancer HT29): 14.90 µM | inhibition at 10 µM ([34]; Homo sapiens, HT-29, read-out: Growth inhibition ΔGI): 60.4% | GI50 ([34]; Homo sapiens, HT-29, Colon cancer HT29): 3.4 µM | TGI [35]: ^c (Determined TGI values were >100 μM) | GI50 ([35]; Homo sapiens, T47D): 7.04 µM | TGI [36]: ^c (Determined TGI values were >100 μM) | GI50 ([36]; Homo sapiens): 4.23 µM

From paper PMC4494771, “Synthesis, structure, and biological activity of novel heterocyclic sulfonyl-carboximidamides” (Monatshefte Fur Chemie, 2013)
